Assay results taken from patent US12221656B2, “Methods and materials for assessing homologous recombination deficiency” (Myriad Genetics, Inc., priority 2014, dated 2025).

System: triple negative breast cancer (TNBC)
Test: Neoadjuvant cisplatin cohort, pathologic response in triple negative breast cancer
Type: in vivo, human
Details: for Pathologic complete response (pCR = yes), % response / Pathologic response (PR = yes), % response: secondary analysis, n=51
Description: Analysis of a neoadjuvant TNBC cohort treated with cisplatin was examined relative to the relationship between all three HRD scores and response. All p values were from logistic regression models with response to cisplatin as the dependent variable.
HR Deficiency status was determined for 62 of the 70 samples (70 individual patients) received from a cisplatin cohort (8 had insufficient tumors for analysis). Of these, 31 (50%) were HR deficient, 22 (35%) were non-HR deficient, and 9 (15%) were undetermined. FIG. 15 provides a histogram showing the distribution of HRD scores in the cohort. […] were considered to have high HRD (see also, Example 5). […] Pathologic complete response (pCR), which is associated with long-term survival, was defined as a residual cancer burden (RBC) of 0 and observed in 11/59 (19%) samples. […] These overall response rates correlated with monotherapy expectations.
Statistical analyses followed a predefined Statistical Analysis Plan (SAP), which included primary, secondary, and BRCA wild-type subset analyses.

With `N.N.[Cl][Pt][Cl]` [cisplatin] the “Pathologic complete response (pCR = yes), % response” value (BRCA Mutant) was 3 (33.3%), the “Pathologic response (PR = yes), % response” value (BRCA Mutant) was 5 (55.6%) and the “Pathologic complete response (pCR = yes), % response” value (BRCA Non-mutant) was 5 (11.9%). For the same compound, the “Pathologic response (PR = yes), % response” value (BRCA Non-mutant) was 13 (31.0%), the “Pathologic complete response (pCR), residual cancer burden of 0” value (whole cisplatin cohort, 11/59 samples) was 19% and the “Pathologic response (PR), residual cancer burden of 0 or 1” value (whole cisplatin cohort, 22/59 samples) was 37%.
